Values after ≈ are worked out from the molar mass of the structure shown. Read-outs that look alike come from different tables or passages of the source. Square brackets hold non-standard residues; d marks the D form. Ends that are not written are not given here. Peptide text beside a SMILES is read from it.
What was measured:
[1] = tested on: E. coli
[2] = tested on: P. aeruginosa
[3] = tested on: B. subtilis
[4] = tested on: S. aureus
[5] = tested on: L. lactis
[6] = tested on: B. subtilis (Nisin-resistant)
[7] = tested on: E. coli EHEC K88
[8] = tested on: V. alginolyticus
[9] = tested on: A.baumani
[10] = tested on: M. smegmatis; settings: 72 h
[11] = tested on: C. farmeri
[12] = tested on: P. aeruginosa 01
[13] = Cytotoxicity assay (resazurin); format: cell-based; settings: human
Experimental: Normal human cells used were BEAS-2B (ATCC CRL-9609), IMR-90 (ATCC CCL-186) and Human Umbilical Vein Endothelial Cells (HUVEC) (from Sigma-Aldrich) corresponding respectively to human normal lung epithelial, normal lung fibroblast cells and human normal endothelial cells. All cells except HUVEC cells were cultured in Dulbecco's modified essential medium (DMEM) supplemented with 10% fetal calf serum (FCS), 1% L-glutamine and 1% antibiotics (all from Invitrogen). HUVEC cells were cultured in specific endothelial media (from Sigma Aldrich). Cells were seeded onto […] maintained in a 5% CO2 incubator at 37 °C. Cells grown on 25 cm^2 flasks were detached using trypsin-EDTA solution (from Thermofisher), counted using Mallassez counting chamber and seeded into 96-well cell culture plates (Greiner bio-one) at approximately 10,000 cells per well. The cells were left to grow for 48-72 h at 37 °C in a 5% CO2 incubator until they reached confluence. Plates were then aspirated and increasing concentrations of peptides diluted in culture media were added to the cells for 48 h at 37 °C in a 5% CO2 incubator. At the end of the incubation, wells were emptied and cell viability was evaluated using Resazurin based in vitro toxicity assay kit (from Sigma-Aldrich) following manufacturer's instructions. Briefly, Resazurin stock solution was diluted 1:10 in sterile PBS containing calcium and magnesium (PBS, pH 7.4) and empty wells were filled with 100 µL of the diluted solution. After 4 h incubation at 37 °C, fluorescence intensity was measured using microplate reader (Synergy Mx, Biotek) with an excitation wavelength of 530 nm and an emission wavelength of 590 nm. The fluorescence values were normalized by the controls (buffer treated cells) and expressed as percent viability. The IC50 values of peptides on cell viability (i.e. the concentration of derivative causing a reduction of 50% of cell viability) were determined using GraphPad® Prism 7 software. t-Test and two way ANOVA analyses were used to address the significant differences between mean values with significance set at p < 0.05.

[14] = tested on: P. aeruginosa FQR
[15] = tested on: C. rodentium
[16] = tested on: S. flexneri
[17] = tested on: H. pylori
[18] = tested on: A. gandavensis
[19] = tested on: S. enterica
[20] = tested on: human erythrocytes; test: Hemolytic activity assay; format: cell-based
Experimental: The hemolytic activity of each peptide was determined by the leakage of hemoglobin from human erythrocytes (obtained from Divbioscience, NL) as previously described (Oyama et al., 2017 Biofilms Microbiomes, Dec 1;3:33).
Briefly, human erythrocytes were washed 3 times with phosphate buffer saline (PBS) and concentrated using centrifugation at 800 g for 5 min. Human erythrocytes were then resuspended in PBS at a final concentration of 8 %. 100 µl of human erythrocytes were then added per well of sterile 96 well microplate already containing 15 µl of serially diluted antimicrobials (1:2 in distilled water). After 1 h at 37°C, the microplate was centrifuged at 800 g for 5 min. 100 µl were then carefully collected and transferred to a new 96 well microplate and OD was measured at 405 nm. Hemolysis caused by peptides was expressed as percentage of hemolysis; Triton-X100 at 0.1 % (v:v) was used as positive control and gave 100 % hemolysis. Hemolysis rate was determined as below: Hemolysis rate (%) = (A−A2)/(A1−A2) × 100% [formula] where A is the absorbance of indicator mixtures with different factors, A1 and A2 are the positive control, and the negative control, respectively.

[21] = BEAS-2B normal lung epithelial cells, normal lung epithelium, read-out: Cytotoxicity IC50 (µM) BEAS
[22] = HUVEC (human umbilical vein endothelial cells), normal endothelium, read-out: Cytotoxicity IC50 (µM) HUVEC
[23] = IMR-90 normal lung fibroblast cells, read-out: Cytotoxicity IC50 (µM) IMR90

CC[C@@H](C)[C@@H](N)C(=O)N[C@H](CC(C)C)C(=O)N[C@H](CO)C(=O)N[C@H](C)C(=O)N[C@@H](C(=O)N[C@H](CC(C)C)C(=O)NCC(=O)N[C@H](CC(C)C)C(=O)N[C@H](CC(C)C)C(=O)N[C@H](CCCCN)C(=O)N[C@H](CC(N)=O)C(=O)N[C@H](CC(C)C)C(N)=O)[C@H](C)CC [(i1I12)enantio, ilsailgllknl] (H-[dI][dL][dS][dA][dI][dL]G[dL][dL][dK][dN][dL]-NH2)
MIC (µM) E. coli [1]: 100 µM (≈ 127 µg/mL) | MIC (µM) P. aeruginosa [2]: 100 µM (≈ 127 µg/mL) | MIC (µM) B. subtilis [3]: 3.13 µM (≈ 3.96 µg/mL) | MIC (µM) S. aureus [4]: 6.25 µM (≈ 7.92 µg/mL)

CC[C@H](C)[C@H](NC(=O)CN)C(=O)NCC(=O)N[C@@H](C)C(=O)N[C@H](C(=O)N[C@@H](CC(C)C)C(=O)N[C@@H](CCCCN)C(=O)N[C@H](C(=O)N[C@@H](CC(C)C)C(=O)N[C@H](C(=O)N[C@H](C(=O)NCC(=O)N[C@@H](CC(C)C)C(=O)N1CCC[C@H]1C(=O)N[C@@H](C)C(=O)N[C@@H](CC(C)C)C(=O)N[C@H](C(=O)N[C@@H](CO)C(=O)N[C@@H](Cc1c[nH]c2ccccc12)C(=O)N[C@H](C(=O)N[C@@H](CCCCN)C(=O)N[C@@H](CCCNC(=N)N)C(=O)N[C@@H](CCCCN)C(=O)N[C@@H](CCCNC(=N)N)C(=O)N[C@@H](CCC(N)=O)C(=O)N[C@@H](CCC(N)=O)C(N)=O)[C@@H](C)CC)[C@@H](C)CC)[C@@H](C)O)[C@@H](C)O)C(C)C)C(C)C [Melittine, Melittin, reference compound]
MIC against B. subtilis [3]: 1.56 µM (≈ 4.44 µg/mL)

CC[C@@H](C)[C@@H](N)C(=O)N[C@@H](CC(C)C)C(=O)N[C@@H](CCCCN)C(=O)N[C@@H](C)C(=O)N[C@H](C(=O)N[C@@H](CCCCN)C(=O)N[C@@H](CCCCN)C(=O)N[C@@H](CC(C)C)C(=O)N[C@@H](CC(C)C)C(=O)N[C@H](CCCCN)C(N)=O)[C@@H](C)CC [i1k10*] (H-[dI]LKAIKKLL[dK]-NH2)
MBC (µM) L. lactis [5]: 1.56 µM (≈ 1.82 µg/mL) | MIC (µM) L. lactis [5]: 0.78 µM (≈ 0.91 µg/mL) | MBC (µM) B. subtilis (Nisin-resistant) [6]: 3.12 µM (≈ 3.64 µg/mL) | MIC (µM) B. subtilis (Nisin-resistant) [6]: 3.12 µM (≈ 3.64 µg/mL) | MIC (µM) E. coli [1]: 50 µM (≈ 58.3 µg/mL) | MBC (µM) E. coli EHEC K88 [7]: 6.25 µM (≈ 7.29 µg/mL) | MIC (µM) E. coli EHEC K88 [7]: 6.25 to 12.5 µM | MBC (µM) V. alginolyticus [8]: 0.78 µM (≈ 0.91 µg/mL) | MIC (µM) V. alginolyticus [8]: 0.78 µM (≈ 0.91 µg/mL) | MIC (µM) A.baumani [9]: 100 µM (≈ 117 µg/mL) | MBC (µM) P. aeruginosa [2]: 1.5 µM (≈ 1.75 µg/mL) | MIC PA [2]: 0.78 µM (≈ 0.91 µg/mL) | MIC (µM) M. smegmatis [10]: 12.5 µM (≈ 14.6 µg/mL) | MBC (µM) C. farmeri [11]: 3.12 µM (≈ 3.64 µg/mL) | MIC (µM) C. farmeri [11]: 3.12 µM (≈ 3.64 µg/mL) | MBC (µM) P. aeruginosa 01 [12]: 12.5 µM (≈ 14.6 µg/mL) | MIC (µM) P. aeruginosa 01 [12]: 3.125 µM (≈ 3.65 µg/mL) | CC50 at 48 h [13, 21]: 867 µM | CC50 at 48 h [13, 22]: 814 µM | CC50 at 48 h [13, 23]: 783 µM | MBC (µM) P. aeruginosa FQR [14]: 25 µM (≈ 29.2 µg/mL) | MIC (µM) P. aeruginosa FQR [14]: 3.12 to 6.25 µM | MBC (µM) C. rodentium [15]: 12.5 µM (≈ 14.6 µg/mL) | MIC (µM) C. rodentium [15]: 12.5 µM (≈ 14.6 µg/mL) | MBC (µM) S. flexneri [16]: 6.25 µM (≈ 7.29 µg/mL) | MIC (µM) S. flexneri [16]: 3.12 to 6.25 µM | MBC (µM) H. pylori [17]: 12.5 µM (≈ 14.6 µg/mL) | MIC (µM) H. pylori [17]: 12.5 µM (≈ 14.6 µg/mL) | MBC (µM) A. gandavensis [18]: 0.78 µM (≈ 0.91 µg/mL) | MIC (µM) A. gandavensis [18]: 0.78 µM (≈ 0.91 µg/mL) | MBC (µM) S. enterica [19]: 12.5 µM (≈ 14.6 µg/mL) | MIC (µM) S. enterica [19]: 12.5 µM (≈ 14.6 µg/mL)

Ac-IKAIKKLLKN-NH2 [Ac I1N10*]
MIC (µM) E. coli [1]: 100 µM | MIC (µM) A.baumani [9]: >100 µM | MIC (µM) P. aeruginosa [2]: 50 µM

ILKAIKK-NH2 [I1K7*, ILKAIKK]
MIC (µM) E. coli [1]: 100 µM | MIC (µM) A.baumani [9]: 100 µM | MIC (µM) P. aeruginosa [2]: 100 µM | MIC (µM) S. aureus ([4]; Table 4, n=4): / (« / » means MIC > 100µM)

ILKAIKKLLK-NH2 [I1K10*]
hemotoxicity: no toxicity towards red blood cells up to ([20]; highest concentration tested): > 10 mM

ILKAIKKLLKN-NH2 [I1N11]
MBC (µM) L. lactis [5]: 3.12 µM | MIC (µM) L. lactis [5]: 1.5 µM | MBC (µM) B. subtilis (Nisin-resistant) [6]: 12.5 µM | MIC (µM) B. subtilis (Nisin-resistant) [6]: 12.5 µM | MBC (µM) E. coli EHEC K88 [7]: >100 µM | MIC (µM) E. coli EHEC K88 [7]: 100 µM | MBC (µM) V. alginolyticus [8]: 0.78 µM | MIC (µM) V. alginolyticus [8]: 0.78 µM | MBC (µM) P. aeruginosa [2]: 6.25 µM | MIC (µM) P. aeruginosa [2]: 6.25 µM | MIC PA [2]: 6.25 µM | MIC (µM) M. smegmatis [10]: 25 µM | MBC (µM) C. farmeri [11]: 12.5 µM | MIC (µM) C. farmeri [11]: 12.5 µM | MBC (µM) P. aeruginosa 01 [12]: 50 µM | MIC (µM) P. aeruginosa 01 [12]: 25 µM | CC50 at 48 h [13, 21]: 821 µM | CC50 at 48 h [13, 22]: 826 µM | CC50 at 48 h [13, 23]: 892 µM | MBC (µM) P. aeruginosa FQR [14]: 100 µM | MIC (µM) P. aeruginosa FQR [14]: 25 µM | MBC (µM) C. rodentium [15]: 50 µM | MIC (µM) C. rodentium [15]: 50 µM | MBC (µM) S. flexneri [16]: 50 µM | MIC (µM) S. flexneri [16]: 50 µM | MBC (µM) H. pylori [17]: 100 µM | MIC (µM) H. pylori [17]: 100 µM | MBC (µM) A. gandavensis [18]: 3.12 µM | MIC (µM) A. gandavensis [18]: 3.12 µM | MBC (µM) S. enterica [19]: 50 µM | MIC (µM) S. enterica [19]: 100 µM

ILSAILGLL-NH2 [Peptides I1L9]
MIC (µM) B. subtilis [3]: 100 µM | MIC (µM) S. aureus [4]: 100 µM

KLLGLILI-NH2 [K1I8]
MIC (µM) E. coli [1]: 50 µM | MIC (µM) P. aeruginosa ([2]; Table 3, n=4): / (« / » means MIC > 100µM) | MIC (µM) S. aureus [4]: 25 µM

LKAIKKLL-NH2 [L2L9*]
MIC (µM) E. coli [1]: 100 µM | MIC (µM) P. aeruginosa [2]: 25 µM

LNKLLGLIASLI-NH2 [L12I1]
MIC (µM) P. aeruginosa [2]: 50 µM

LSAILGLLK-NH2 [Peptides L2K10]
MIC (µM) B. subtilis [3]: 100 µM

RLLGLWLW-NH2 [LTX-gallicune-2 (R1W8)]
MHC50 ([20]; human erythrocytes, 50% lysis): 225 µM | MHC100 ([20]; human erythrocytes, 100% lysis): 1000 µM | times less toxic (hemotoxic) than Gallicus-CP ([20]; human erythrocytes, Fig 3): 20 times

From patent publication EP3838286B1, “ANTIMICROBIAL PEPTIDE FROM POLISTES GALLICUS VENOM AND ITS ANALOGS” (Latoxan, priority 2019, dated 2021)
